According to US20220154153A1, “NEW INHIBITORS OF LRRK2/PP1 INTERACTION” (Université de Paris, priority 2019, published 2022):
Entries after “also recorded” stand apart in the source; their conditions may differ.

What was measured:
LRRK2/PP1 interaction = experiment: In vitro competition assay of LRRK2/PP1 interaction (LRRK2 immunoprecipitates from MDA-MB231 lysates, anti-PP1 Western blot); format: binding, human; details: 1 mM peptide, 30 min, room temperature; compared with non-competed immunoprecipitates
Protocol: In Vitro Protein/Protein Interaction Competition
The PP1/LRRK2 interaction was competed using the peptides of the invention. Lysates from MDA-MB231 cells were immunoprecipitated with anti-LRRK2 antibody (overnight, 4° C.) and protein A/G Sepharose was added for 1 h at 4° C. The PP1/LRRK2 interaction was competed with 1 mM of the peptide for 30 min at room temperature. After several washing steps, immunoprecipitates were transferred to nitrocellulose and blotted with anti PP1 antibody (Santa Cruz Biotechnology). As internal control, the blot was also blotted with anti-LRRK2 antibody (Invitrogene).
Immunoprecipitation and Western Blotting
Cells (5×10^6) were lysed for 20 min at 4° C. in lysis buffer (50 mM Tris pH8, 1% NP40, 137 mM NaCl, 1 mM MgCl2, 1 mM CaCl2), 10% glycerol and protease inhibitor mixture). Lysates (500 μg) were immunoprecipitated with the appropriated antibody overnight at 4° C. and protein A/G sepharose was added for 1 h at 4° C. After washing with 1×TBST (20 mM Tris HCl pH7.5, 150 mM NaCl, 0.05% Tween 20) immunoprecipitates were separated by SDS-PAGE, transferred to nitrocellulose, blocked (5% non-fat dry milk in TBST) and incubated with the primary antibody (Santa Cruz Biotehnology). The membrane was washed and incubated with PO-conjugates secondary antibody (Dako). Protein detection was performed using the ECL system.

MDA-MB231 cells [1] = experiment: Detection of apoptosis by Annexin-V-FITC staining in cancer cells; format: cell-based, human; details: 25 μM peptide, 24 h of treatment
Protocol: Detection of Apoptosis by Annexin-V-FITC Staining
Apoptosis was determined using Annexin-V FITC (eBiosciences) as described by the manufacturer. Briefly, cells were washed in 1× binding buffer, centrifuged and resuspended in 100 μl of 1× binding buffer containing Annexin-V FITC and propidium iodide. After incubation for 15 min, cells were analyzed by flow cytometry. Data acquired by FACS Canto were analyzed with Diva 60 software. Each condition was analyzed in triplicate. The effect of peptide treatment was compared to untreated control cells.

PBMC from CLL patients = experiment: Internalization of FITC-labelled peptides in PBMC from chronic lymphocytic leukemia (CLL) patients (FACS); format: cell-based, human; details: 4 h, 37° C.; for FITC labelled cells detected (FACS): PBMC of CLL, 50 μM FITC labelled peptide
Protocol: (§1) Isolation and Culture of Primary Cells
(§2) Fresh blood from healthy donors (HD) was obtained from Etablissement Francais du Sang. Chronic lymphocytic leukemia (CLL) patient samples were obtained from the Department of Hematology. Peripheral blood mononuclear cells (PBMC) from HD and CLL patients were prepared by Ficoll gradient centrifugation. Cells were maintained in RPMI 1640 supplemented with 10% of FCS, 1% non-essential amino acids, 1% Hepes, 1% sodium pyruvate and 1% glutamine. All the experimental protocols as well as the human blood samples isolation were approved by the Ethical Committee of the Hospital in accordance with the National Guide of the Ministry of Health.
(§3) In addition to cell lines, the internalization of the new peptides according to the invention was further tested in peripheral blood mononuclear cells (PBMC) from healthy donors and chronic lymphocytic leukemia (CLL) patients. PBMC from both were incubated with 50 μM of both peptides for 4 h at 37° C.

MDA-MB231 cells [2] = experiment: Internalization of FITC-labelled peptides in MDA-MB231 cell line (FACS); format: cell-based, human; details: different concentrations, 4 h, compared to peptide 13
Protocol: Quantification of Cellular Internalization
Human cell line MDA-MB231 was seeded in 24 well plate (1×10^5 cells/well) and treated with different concentrations of FITC-labelled peptides for different periods of time. After treatment, cells were harvested and washed twice with PBS to remove the extracellular unbound peptide and resuspended in 200 μl of PBS. FITC fluorescence intensity of internalized peptides was measured by flow cytometry. Untreated cells were used as control.

PBMC from healthy donors = experiment: Internalization of FITC-labelled peptides in PBMC from healthy donors (FACS); format: cell-based, human; details: 4 h, 37° C.; for FITC labelled cells detected (FACS): PBMC of healthy human, 50 μM FITC labelled peptide
Protocol: as §1, §2, §3

Sequence	PP1 detected in LRRK2 immunoprecipitates after competition with peptide (Western blot) (LRRK2/PP1 interaction)	Apoptosis induction (Annexin-V) (MDA-MB231 cells [1])	Fluorescence intensity of internalization compared with peptide 13 (PBMC from CLL patients; CLL patients PBMC, 50 μM)	FITC labelled cells detected (FACS) (PBMC from CLL patients)	Fluorescence intensity of internalization (FACS) (MDA-MB231 cells [2])	FITC labelled cells detected (FACS) (PBMC from healthy donors)	Fluorescence intensity of internalization compared with peptide 13 (PBMC from healthy donors; healthy donors PBMC, 50 μM)
VKKKKIKAEIKI (Synthetic construct vectorization (or carrier) peptide disclosed in WO/2016/156536) [shuttle, optimized cell penetrating peptide used alone as control, reference compound]	PP1 is detected; also recorded: no difference	do not show apoptosis					
VKKKKIKAEIKIGFWSRLINRLLEI (Synthetic construct Seq_29 fused to seq_8) [peptide 14]	important decrease in PP1 detected	strong level of apoptosis	slightly higher fluorescence intensity	majority of FITC labelled cells is detected	higher	majority of FITC labelled cells is detected	slightly higher fluorescence intensity
VKKKKIKAEIKIPMGFWSRLINRLLEISPY (Synthetic construct Seq_29 fused to seq_7) [peptide 13]	low detected; also recorded: important decrease in PP1 detected	strong level of apoptosis		majority of FITC labelled cells is detected		majority of FITC labelled cells is detected	
